According to US6589755B1, “Assay for quantifying arthritic conditions” (Novartis AG, priority 1996, dated 2003):

Test system: LMW-COMP fragment
Assay: LMW-COMP fragments in synovial fluid of treated arthritis patients
Format: in vivo, human
Conditions: strong anti-arthritic compound
Procedure: Twenty microliters of human synovial fluids were mixed 1:1 with SDS-PAGE loading buffer (NOVEX, San Diego, Calif.) containing 10% mercaptoethanol. The samples were boiled for 4 min. and […] applied per lane on a 14% or a 4-12% gradient SDS-PAGE Tris-Gly gel (Novex, Calif.). A separate set of these samples was also prepared for analysis under non-reducing conditions. Molecular weight markers were used to localize the molecular weight of unknowns. After electrophoresis, the samples were electrophoretically transferred onto a nitro-cellulose paper. The paper was treated with 2% bovine serum albumin (BSA) in 10 mM sodium phosphate, 0.15 M NaCl at […] (PBS) for 18 hours at 4° C.
The nitrocelluose paper was rinsed with PBS (10 mM sodium phosphate, 0.15 M NaCl at pH 7.2). […] The bound antibody was then detected using ECL or ECF substrate (Amersham Co.). The fragments were quantified using a Molecular Dynamics densitometer (Sunnyvale, Calif.). […]
A 96-well microtiter plate was coated with 0.1 ml/well of 50 ng/ml of antigen (synthetic peptide H741 without the N-terminal cysteine) in PBS for 48 to 72 h at 4° C. […] After 1 h at RT, the plate was washed 3-times with the ELISA wash buffer and the bound antibody detected by adding 100 μl/well of p-nitrophenyl phosphate substrate solution (Sigma, St. Louis, Mo.) and measuring optical density (OD) at 405 nm. […]

Row | Structure (SMILES) | LMW-COMP fragment produced under treatment
1 | CN1C(C(=O)Nc2ccccn2)=C(O)c2ccccc2S1(=O)=O [piroxicam] | less
2 | CN(Cc1cnc2nc(N)nc(N)c2n1)c1ccc(C(=O)N[C@@H](CCC(=O)O)C(=O)O)cc1 [methotrexate] | less
